Measured values reported in the NIST ThermoML archive (doi:10.1021/je030147g).
Several values for one entry are separate records, joined by “and”; a condition that tells them apart may be missing. Equal entries are not always repeated.

Experiments:
[1] = refractive index (Na D-line) (dimensionless); conditions: 101.33 kPa, Liquid
[2] = 101.33 kPa, Liquid
[3] = xn = mol fraction of the nth substance listed; conditions: 101.33 kPa, Liquid
[4] = refractive index (Na D-line) (dimensionless); xn = mol fraction of the nth substance listed; conditions: 101.33 kPa, Liquid

ClC=C(Cl)Cl [trichloroethene]
Conditions | mass density, 298.15 K [kg/m3] | mass density, 303.15 K [kg/m3] | mass density, 308.15 K [kg/m3] | refractive index, 298.15 K | refractive index, 303.15 K | refractive index, 308.15 K | speed of sound, 298.15 K [m/s] | viscosity, 298.15 K [mPa·s] | viscosity, 303.15 K [mPa·s] | viscosity, 308.15 K [mPa·s]
[1] | – | – | – | 1.4752 | 1.4722 | 1.469 | – | – | – | –
[2] | 1456.7 | 1447.1 | 1439.5 | – | – | – | 1028 | 0.595 | 0.571 | 0.549

CCCCN(CCCC)CCCC [tributylamine]
Conditions | mass density, 298.15 K | mass density, 303.15 K [kg/m3] | mass density, 308.15 K [kg/m3] | refractive index, 298.15 K | refractive index, 303.15 K | refractive index, 308.15 K | speed of sound, 298.15 K [m/s] | viscosity, 298.15 K [mPa·s] | viscosity, 303.15 K | viscosity, 308.15 K
[1] | – | – | – | 1.4276 | 1.4255 and 1.4254 | 1.4228 | – | – | – | –
[2] | 773.9 kg/m3 and 773.3 kg/m3 | 769.2 | 765.7 | – | – | – | 1262 | 1.239 | 1.123 mPa·s and 1.124 mPa·s | 1.028 mPa·s and 1.02 mPa·s and 1.103 mPa·s

CCN(CC)CC [triethylamine]
Conditions | mass density, 298.15 K [kg/m3] | mass density, 303.15 K [kg/m3] | mass density, 308.15 K [kg/m3] | refractive index, 298.15 K | refractive index, 303.15 K | refractive index, 308.15 K | speed of sound, 298.15 K [m/s] | viscosity, 298.15 K [mPa·s] | viscosity, 303.15 K [mPa·s] | viscosity, 308.15 K [mPa·s]
[1] | – | – | – | 1.3992 | 1.3958 | 1.3929 | – | – | – | –
[2] | 723.3 | 718.6 | 713.7 | – | – | – | 1123 | 0.367 | 0.349 | 0.332

CCCCCCCCCCCCCC [tetradecane]
Conditions | mass density, 298.15 K [kg/m3] | mass density, 303.15 K [kg/m3] | mass density, 308.15 K [kg/m3] | refractive index, 298.15 K | refractive index, 303.15 K | refractive index, 308.15 K | speed of sound, 298.15 K [m/s] | viscosity, 298.15 K [mPa·s] | viscosity, 303.15 K [mPa·s] | viscosity, 308.15 K [mPa·s]
[1] | – | – | – | 1.4282 | 1.426 | 1.4236 | – | – | – | –
[2] | 760.7 | 757 | 753.3 | – | – | – | 1315 | 2.032 | 1.827 | 1.653

ClC(Cl)=C(Cl)Cl [tetrachloroethene]
Conditions | mass density, 298.15 K [kg/m3] | mass density, 303.15 K [kg/m3] | mass density, 308.15 K [kg/m3] | refractive index, 298.15 K | refractive index, 303.15 K | refractive index, 308.15 K | speed of sound, 298.15 K [m/s] | viscosity, 298.15 K [mPa·s] | viscosity, 303.15 K [mPa·s] | viscosity, 308.15 K [mPa·s]
[1] | – | – | – | 1.5036 | 1.5005 | 1.4978 | – | – | – | –
[2] | 1616 | 1607.5 | 1597.5 | – | – | – | 1033 | 0.875 | 0.831 | 0.791

c1ccncc1 [pyridine]
Conditions | mass density, 298.15 K [kg/m3] | mass density, 303.15 K [kg/m3] | mass density, 308.15 K [kg/m3] | refractive index, 298.15 K | refractive index, 303.15 K | refractive index, 308.15 K | speed of sound, 298.15 K [m/s] | viscosity, 298.15 K [mPa·s] | viscosity, 303.15 K [mPa·s] | viscosity, 308.15 K [mPa·s]
[1] | – | – | – | 1.5062 | 1.5025 | 1.5016 | – | – | – | –
[2] | 979 | 973.7 | 968.6 | – | – | – | 1412 | 0.885 | 0.82 | 0.766

C1CCOC1 [tetrahydrofuran]
Conditions | mass density, 298.15 K [kg/m3] | mass density, 303.15 K [kg/m3] | mass density, 308.15 K [kg/m3] | refractive index, 298.15 K | refractive index, 303.15 K | refractive index, 308.15 K | speed of sound, 298.15 K [m/s] | viscosity, 298.15 K [mPa·s] | viscosity, 303.15 K [mPa·s] | viscosity, 308.15 K [mPa·s]
[1] | – | – | – | 1.4049 | 1.4026 | 1.3998 | – | – | – | –
[2] | 882.9 | 877.5 | 871.2 | – | – | – | 1288 | 0.485 | 0.46 | 0.439

CCCCN(CCCC)CCCC [tributylamine] + CCCCCCCCCCCCCC
Conditions | mass density, 298.15 K [kg/m3] | mass density, 303.15 K [kg/m3] | mass density, 308.15 K [kg/m3] | refractive index, 298.15 K | refractive index, 303.15 K | refractive index, 308.15 K | speed of sound, 298.15 K [m/s] | viscosity, 298.15 K [mPa·s] | viscosity, 303.15 K [mPa·s] | viscosity, 308.15 K [mPa·s]
[3], x1 = 0.1081 | 761.9 | 758.1 | 754.4 | – | – | – | 1303 | 1.93 | 1.75 | 1.57
[3], x1 = 0.2058 | 762.9 | 759.2 | 755.5 | – | – | – | 1292 | 1.842 | 1.671 | 1.499
[3], x1 = 0.2802 | 763.8 | 760 | 756.3 | – | – | – | 1287 | 1.774 | 1.612 | 1.45
[3], x1 = 0.4095 | 765.3 | 761.5 | 757.8 | – | – | – | 1283 | 1.668 | 1.518 | 1.368
[3], x1 = 0.5112 | 766.6 | 762.9 | 759.1 | – | – | – | 1279 | 1.585 | 1.448 | 1.31
[3], x1 = 0.6101 | 767.9 | 764.2 | 760.5 | – | – | – | 1275 | 1.511 | 1.386 | 1.261
[3], x1 = 0.7051 | 769.3 | 765.5 | 761.9 | – | – | – | 1272 | 1.441 | 1.329 | 1.216
[3], x1 = 0.7999 | 770.9 | 767 | 763.1 | – | – | – | 1270 | 1.375 | 1.274 | 1.173
[3], x1 = 0.8953 | 772.4 | 768.4 | 764.4 | – | – | – | 1267 | 1.309 | 1.222 | 1.135
[3], x1 = 1 | 773.9 | 769.2 | 765.7 | – | – | – | 1262 | 1.239 | 1.124 | 1.103
[4], x1 = 0.1081 | – | – | – | 1.4283 | 1.4258 | 1.4234 | – | – | – | –
[4], x1 = 0.2058 | – | – | – | 1.4282 | 1.4257 | 1.4234 | – | – | – | –
[4], x1 = 0.2802 | – | – | – | 1.428 | 1.4256 | 1.4232 | – | – | – | –
[4], x1 = 0.4095 | – | – | – | 1.4278 | 1.4254 | 1.4231 | – | – | – | –
[4], x1 = 0.5112 | – | – | – | 1.4278 | 1.4254 | 1.423 | – | – | – | –
[4], x1 = 0.6101 | – | – | – | 1.4278 | 1.4254 | 1.423 | – | – | – | –
[4], x1 = 0.7051 | – | – | – | 1.4279 | 1.4255 | 1.4231 | – | – | – | –
[4], x1 = 0.7999 | – | – | – | 1.4281 | 1.4256 | 1.4231 | – | – | – | –
[4], x1 = 0.8953 | – | – | – | 1.428 | 1.4255 | 1.4231 | – | – | – | –
[4], x1 = 1 | – | – | – | 1.4276 | 1.4255 | 1.4228 | – | – | – | –

CCCCN(CCCC)CCCC [tributylamine] + C1CCOC1
Conditions | mass density, [3] [kg/m3] | refractive index, [4] | speed of sound, [3] [m/s] | viscosity, [3] [mPa·s]
298.15 K, x1 = 0.1033 | 853.3 | 1.412 | 1283 | 0.571
298.15 K, x1 = 0.2033 | 833.4 | 1.415 | 1278 | 0.656
298.15 K, x1 = 0.3041 | 818.9 | 1.418 | 1274 | 0.741
298.15 K, x1 = 0.4012 | 808.1 | 1.42 | 1271 | 0.818
298.15 K, x1 = 0.5024 | 799.2 | 1.4229 | 1269 | 0.897
298.15 K, x1 = 0.5974 | 792.5 | 1.4235 | 1267 | 0.967
298.15 K, x1 = 0.6814 | 787.5 | 1.4249 | 1266 | 1.028
298.15 K, x1 = 0.7898 | 782.1 | 1.4265 | 1264 | 1.1
298.15 K, x1 = 0.8941 | 777.8 | 1.4269 | 1263 | 1.167
298.15 K, x1 = 1 | 773.9 | 1.4276 | 1262 | 1.239
303.15 K, x1 = 0.1033 | 847.9 | 1.4094 | – | 0.539
303.15 K, x1 = 0.2033 | 828.4 | 1.4141 | – | 0.618
303.15 K, x1 = 0.3041 | 814.2 | 1.4155 | – | 0.693
303.15 K, x1 = 0.4012 | 803.5 | 1.4178 | – | 0.763
303.15 K, x1 = 0.5024 | 794.7 | 1.4203 | – | 0.833
303.15 K, x1 = 0.5974 | 788.2 | 1.4211 | – | 0.896
303.15 K, x1 = 0.6814 | 783.1 | 1.4226 | – | 0.949
303.15 K, x1 = 0.7898 | 777.9 | 1.4238 | – | 1.014
303.15 K, x1 = 0.8941 | 773.6 | 1.4246 | – | 1.071
303.15 K, x1 = 1 | 769.2 | 1.4254 | – | 1.124
308.15 K, x1 = 0.1033 | 842.5 | 1.4068 | – | 0.509
308.15 K, x1 = 0.2033 | 823.5 | – | – | 0.581
308.15 K, x1 = 0.3041 | 809.3 | 1.413 | – | 0.646
308.15 K, x1 = 0.4012 | 798.9 | 1.4156 | – | 0.708
308.15 K, x1 = 0.5024 | 790.3 | 1.4178 | – | 0.769
308.15 K, x1 = 0.5974 | 783.8 | 1.4188 | – | 0.825
308.15 K, x1 = 0.6814 | 778.9 | 1.4203 | – | 0.871
308.15 K, x1 = 0.7898 | 773.6 | 1.4212 | – | 0.928
308.15 K, x1 = 0.8941 | 769.4 | 1.4224 | – | 0.976
308.15 K, x1 = 1 | 765.7 | 1.4228 | – | 1.02
